This note sets out measurements from patent publication US20220288143A1, “PHARMACEUTICAL COMPOSITION FOR TREATING CANCER, COMPRISING VACCINIA VIRUS AND GRANULOPOIESIS INHIBITOR AS ACTIVE INGREDIENTS” (priority 2019, published 2022).

Experiment [1] concerns neutrophils. In words: Neutrophil count (CBC), Renca-transplanted mice, lenalidomide or hydroxyurea (Exp. Ex. 17). Format: in vivo, mouse. The following applies: day 5, 30 mg/kg i.p. daily, compared with group administered saline. The method, then:
Balb/c mice (female, 8-week-old) purchased from Orient Bio (Busan, Korea) were subjected to a one-week acclimatization period, and then allografted with Renca cancer cell line (Korea Cell Line Bank) at 5×10^6 cells. After another one-week acclimatization period, the mice were divided into 3 groups (n=3) and administered intraperitoneally with saline, hydroxyurea (30 mg/kg), and lenalidomide (30 mg/kg), respectively, daily from 1 day before the administration of the oncolytic virus to day 4 after the administration.
As a result of performing a complete blood count (CBC) by sacrificing the mice in each group on day 5 after administering the oncolytic virus, it was confirmed that the neutrophil count of the mice in the group administered with lenalidomide was reduced as compared with the group administered with saline, except for one outlier mouse.

The test system of experiment [2] is neutrophils. The class given is in vivo, mouse. The following applies: Renca mice; day 8; compared with negative control group (saline); hydroxyurea 30 mg/kg i.p.

Consider `Nc1cccc2c1CN(C1CCC(=O)NC1=O)C2=O` (stereo not drawn) [lenalidomide], for which, in the experiment on neutrophils [1], the neutrophil count entry is given as “reduced”. On to `NC(=O)NO` [hydroxyurea], for which the “absolute neutrophil count (ANC)” value with neutrophils [2] was “decreased”. The neutrophil count result in the experiment with neutrophils [1] is on record as “significantly lower”.
